Data: the NIST ThermoML archive (doi:10.1016/j.fluid.2006.12.001)

assay: xn = mol fraction of the nth substance listed; conditions: 303.2 K; 101 kPa; Liquid; Taylor dispersion method; x1 = 0

SMILES	binary diffusion coefficient [m2/s]
CCCCn1cc[n+](C)c1.F[B-](F)(F)F [1-butyl-3-methylimidazolium tetrafluoroborate] + O	1.3e-09
CCCCCCCC[n+]1ccn(C)c1.F[P-](F)(F)(F)(F)F [1-octyl-3-methylimidazolium hexafluorophosphate] + O	1.06e-09
CCCCCCn1cc[n+](C)c1.F[B-](F)(F)F [1-hexyl-3-methylimidazolium tetrafluoroborate] + O	1.24e-09
CCCCCCCC[n+]1ccn(C)c1.F[B-](F)(F)F [1-methyl-3-octylimidazolium tetrafluoroborate] + O	1.14e-09
CCCCn1cc[n+](C)c1.F[P-](F)(F)(F)(F)F [1-butyl-3-methylimidazolium hexafluorophosphate] + O	1.25e-09
CCCCCCn1cc[n+](C)c1.F[P-](F)(F)(F)(F)F [1-hexyl-3-methylimidazolium hexafluorophosphate] + O	1.11e-09
CCn1cc[n+](C)c1.F[P-](F)(F)(F)(F)F [1-ethyl-3-methylimidazolium hexafluorophosphate] + O	1.41e-09
CCn1cc[n+](C)c1.F[B-](F)(F)F [1-ethyl-3-methylimidazolium tetrafluoroborate] + O	1.52e-09
